Assay results reported in patent publication US10597380B2, “Pyridazinone-based broad spectrum anti-influenza inhibitors” (Hoffmann-La Roche Inc., priority 2017, dated 2020).

system: Influenza A/WSN/33-Luciferase virus; assay: microbe, parasite or virus in culture; format: cell-based; conditions: A549, 72 h, luciferase signal three days later, read-out: IC50 antiviral activity (Luciferase reporter assay)

Compared with Cn1cccc(Nc2nn(-c3ccc(OC(F)(F)F)cc3)c(=O)c3c2CC(O)CC3)c1=O (stereo not drawn) [Example 165, 6-hydroxy-4-[(1-methyl-2-oxo-3-pyridyl)amino]-2-[4-(trifluoromethoxy)phenyl]-5,6,7,8-tetrahydrophthalazin-1-one], CC(O)(CN)Cn1cccc(Nc2nn(-c3ccc(OC(F)(F)F)cc3)c(=O)c3c2CCC3)c1=O (stereo not drawn) [Example 166, 1-[[1-(3-Amino-2-hydroxy-2-methyl-propyl)-2-oxo-3-pyridyl]amino]-3-[4-(trifluoromethoxy)phenyl]-6,7-dihydro-5H-cyclopenta[d]pyridazin-4-one] is 4.5-fold higher in IC50: 24 nM for the first, 107 nM for the second.

Compared with O=C(Cn1cccc(Nc2nn(-c3ccc(OC(F)(F)F)cc3)c(=O)c3c2CCC3)c1=O)N1CCNCC1 [Example 167, 1-[[2-Oxo-1-(2-oxo-2-piperazin-1-yl-ethyl)-3-pyridyl]amino]-3-[4-(trifluoromethoxy)phenyl]-6,7-dihydro-5H-cyclopenta[d]pyridazin-4-one], O=c1c(Nc2nn(-c3ccc(OC(F)(F)F)cc3)c(=O)c3c2CCC3)cccn1CCNC1COC1 [Example 168, 1-[[1-[2-(Oxetan-3-ylamino)ethyl]-2-oxo-3-pyridyl]amino]-3-[4-(trifluoromethoxy)phenyl]-6,7-dihydro-5H-cyclopenta[d]pyridazin-4-one] is 6.2-fold lower in IC50: 148 nM for the first, 24 nM for the second. The second is the more potent here.

First: O=c1c(Nc2nn(-c3ccc(OC(F)(F)F)cc3)c(=O)c3c2CCC3)cncn1CCN1CC(O)C1 [Example 169, 1-[[1-[2-(3-Hydroxyazetidin-1-yl)ethyl]-6-oxo-pyrimidin-5-yl]amino]-3-[4-(trifluoromethoxy)phenyl]-6,7-dihydro-5H-cyclopenta[d]pyridazin-4-one]
Second: N[C@H]1CO[C@H](Cn2cccc(Nc3nn(-c4ccc(OC(F)(F)F)cc4)c(=O)c4c3CCC4)c2=O)OC1 [Example 170, trans-1-[[1-[(5-Amino-1,3-dioxan-2-yl)methyl]-2-oxo-3-pyridyl]amino]-3-[4-(trifluoromethoxy)phenyl]-6,7-dihydro-5H-cyclopenta[d]pyridazin-4-one]
The IC50 of the first is 3.7-fold higher: 307 nM for the first, 83 nM for the second. The second is the more potent here.

Compared with Cc1cc(OC(F)(F)F)ccc1-n1nc(Nc2cccn(C)c2=O)c2c(c1=O)CCC2 [Example 171, 1-[(1-Methyl-2-oxo-3-pyridyl)amino]-3-[2-methyl-4-(trifluoromethoxy)phenyl]-6,7-dihydro-5H-cyclopenta[d]pyridazin-4-one], COc1cc(-n2nc(Nc3cccn(C)c3=O)c3c(c2=O)CCC3)ccc1C(F)(F)F [Example 173, 3-[3-Methoxy-4-(trifluoromethyl)phenyl]-1-[(1-methyl-2-oxo-3-pyridyl)amino]-6,7-dihydro-5H-cyclopenta[d]pyridazin-4-one] is 11-fold higher in IC50: 6830 nM for the first, 74600 nM for the second.

Going from COc1ccc(-n2nc(Nc3cccn(C)c3=O)c3c(c2=O)CCC3)cc1OC [Example 172, 3-(3,4-Dimethoxyphenyl)-1-[(1-methyl-2-oxo-3-pyridyl)amino]-6,7-dihydro-5H-cyclopenta[d]pyridazin-4-one] to CNC(=O)c1cc(Nc2nn(-c3ccc(OC(F)(F)F)cc3)c(=O)c3c2CCCC3)c(=O)n(C)c1 [Example 174, N,1-Dimethyl-6-oxo-5-[[4-oxo-3-[4-(trifluoromethoxy)phenyl]-5,6,7,8-tetrahydrophthalazin-1-yl]amino]pyridine-3-carboxamide], the IC50 rises from 3480 nM to 14600 nM (4.2-fold).

CNC(=O)c1cc(Nc2nn(-c3ccc(OC(F)(F)F)cc3)c(=O)c3ccccc23)c(=O)n(C)c1 [Example 175, N,1-Dimethyl-6-oxo-5-[[4-oxo-3-[4-(trifluoromethoxy)phenyl]phthalazin-1-yl]amino]pyridine-3-carboxamide] and Cn1cc(C(F)(F)F)cc(Nc2nn(-c3ccc(OC(F)(F)F)cc3)c(=O)c3ccccc23)c1=O [Example 176, 4-[[1-methyl-2-oxo-5-(trifluoromethyl)-3-pyridyl]amino]-2-[4-(trifluoromethoxy)phenyl]phthalazin-1-one] are within 1.5-fold of each other in IC50: 74400 nM for the first, 80500 nM for the second.
